Data reported in ChEMBL document CHEMBL1201862, “PubChem BioAssay data set” (2004).
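Values below derive from 48-hour exposures of cells grown in 96-well plates, with endpoints linearly interpolated between the two concentrations bracketing the appropriate inhibition level. GI50 = concentration required for 50% inhibition of growth.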 Calls of active or inactive are those of the source. No stated cut-off is given here; in the data, active = GI50 up to about 1.1 µM and inactive = higher.

Assays:
Assay in all cases: NCI anticancer screen, dose series, 48 h
786-0 = system: 786-0
CCRF-CEM = system: CCRF-CEM
HOP-92 = system: HOP-92
HT-29 = system: HT-29
IGROV-1 = system: IGROV-1
K562 = system: K562
KM12 = system: KM12
LOX IMVI = system: LOX IMVI
M14 = system: M14
MDA-MB-231 = system: MDA-MB-231
NCI-H460 = system: NCI-H460
RXF 393 = system: RXF 393
SF-268 = system: SF-268
SK-MEL-28 = system: SK-MEL-28
SK-MEL-2 = system: SK-MEL-2
SK-MEL-5 = system: SK-MEL-5
SK-OV-3 = system: SK-OV-3
SR = system: SR
U-251 = system: U-251
MDA-N = system: MDA-N

Measured: GI50

COC(=O)C(Cc1ccccc1)NC(=O)CNC(=O)CSc1nnc(COc2ccc(Cl)cc2)n1-c1ccccc1 (configuration not stated)
inactive: 786-0 16.7 µM | CCRF-CEM 2.86 µM | HOP-92 17.4 µM | HT-29 18.8 µM | IGROV-1 15.4 µM | K562 25.3 µM | KM12 18.7 µM | LOX IMVI 3.69 µM | M14 17.7 µM | MDA-MB-231 17 µM | NCI-H460 16.3 µM | RXF 393 16.7 µM | SF-268 17.1 µM | SK-MEL-28 18 µM | SK-MEL-2 17 µM | SK-MEL-5 16.1 µM | SK-OV-3 14.5 µM | SR 2.64 µM | U-251 18.2 µM

CCOC(=O)C(=O)CC(=O)C1=C(c2ccccc2OC)CC(c2cccs2)=CC1=O
inactive: 786-0 > 100 µM | CCRF-CEM 37.1 µM | HOP-92 71.1 µM | HT-29 50.2 µM | IGROV-1 15.3 µM | K562 23.4 µM | KM12 34.3 µM | LOX IMVI 83.9 µM | M14 26.1 µM | MDA-MB-231 93.3 µM | MDA-N 36.1 µM | NCI-H460 48.5 µM | RXF 393 86.9 µM | SF-268 > 100 µM | SK-MEL-28 > 100 µM | SK-MEL-2 78.9 µM | SK-MEL-5 44.1 µM | SK-OV-3 29.7 µM | U-251 86.3 µM

Cc1nc(N)c(N2CCN([N+](=O)[O-])CC2)c(O)n1
inactive: 786-0 > 100 µM | CCRF-CEM > 100 µM | HT-29 > 100 µM | K562 > 100 µM | KM12 > 100 µM | LOX IMVI > 100 µM | M14 > 100 µM | MDA-MB-231 > 100 µM | MDA-N > 100 µM | NCI-H460 > 100 µM | SF-268 > 100 µM | SK-MEL-28 > 100 µM | SK-MEL-2 > 100 µM | SR > 100 µM | U-251 > 100 µM

CN1CCC2(CC1)C(=O)N(NC(N)=O)C(=O)C2c1ccccc1 (configuration not stated)
inactive: 786-0 > 100 µM | CCRF-CEM > 100 µM | HT-29 > 100 µM | IGROV-1 > 100 µM | K562 > 100 µM | KM12 > 100 µM | LOX IMVI > 100 µM | M14 > 100 µM | MDA-MB-231 > 100 µM | MDA-N > 100 µM | NCI-H460 > 100 µM | RXF 393 > 100 µM | SF-268 > 100 µM | SK-MEL-28 > 100 µM | SK-MEL-2 > 100 µM | SK-MEL-5 > 100 µM | SK-OV-3 > 100 µM | U-251 > 100 µM

C=C(C)[C@@H]1CCC2=C[C@@H](OC2=O)[C@@H](C(=C)C)C2=CC(C(=O)O)=C(C1)O2
inactive: 786-0 > 100 µM | CCRF-CEM 38.7 µM | HOP-92 > 100 µM | HT-29 > 100 µM | IGROV-1 > 100 µM | K562 41 µM | KM12 80.2 µM | LOX IMVI 42 µM | M14 > 100 µM | MDA-MB-231 > 100 µM | MDA-N > 100 µM | RXF 393 > 100 µM | SF-268 > 100 µM | SK-MEL-2 > 100 µM | SK-MEL-5 > 100 µM | SK-OV-3 > 100 µM

CCOP(=O)(OCC)/C(=C\N1C(=O)CC(=O)NC1=S)C(=O)OC
inactive: 786-0 > 100 µM | HOP-92 > 100 µM | HT-29 > 100 µM | IGROV-1 > 100 µM | KM12 > 100 µM | LOX IMVI > 100 µM | M14 > 100 µM | MDA-MB-231 > 100 µM | MDA-N > 100 µM | NCI-H460 > 100 µM | RXF 393 > 100 µM | SF-268 > 100 µM | SK-MEL-28 > 100 µM | SK-MEL-2 > 100 µM | SK-MEL-5 > 100 µM | SK-OV-3 > 100 µM | U-251 > 100 µM

O=C1c2ccccc2-c2ccc(/N=[N+](/[O-])c3ccc4c(c3)C(=O)c3ccccc3-4)cc21
inactive: 786-0 > 100 µM | CCRF-CEM > 100 µM | HOP-92 > 100 µM | HT-29 > 100 µM | IGROV-1 > 100 µM | K562 > 100 µM | KM12 > 100 µM | LOX IMVI > 100 µM | M14 > 100 µM | MDA-MB-231 > 100 µM | MDA-N > 100 µM | NCI-H460 > 100 µM | RXF 393 > 100 µM | SF-268 > 100 µM | SK-MEL-28 > 100 µM | SK-MEL-2 > 100 µM | SK-MEL-5 > 100 µM | SK-OV-3 > 100 µM | U-251 > 100 µM

O=[N+]([O-])c1ccc(N2N=C(c3ccc4ccccc4c3O)CC2c2ccc(Cl)cc2Cl)c([N+](=O)[O-])c1 (configuration not stated)
inactive: 786-0 28.2 µM | CCRF-CEM 12.9 µM | HT-29 40.1 µM | IGROV-1 23.3 µM | K562 15.4 µM | KM12 29 µM | LOX IMVI 41.5 µM | M14 > 10 µM | MDA-MB-231 30.9 µM | MDA-N 40.9 µM | NCI-H460 51.1 µM | RXF 393 25.4 µM | SF-268 53.1 µM | SK-MEL-28 65.8 µM | SK-MEL-2 30.3 µM | SK-MEL-5 29.1 µM | SK-OV-3 47.8 µM | U-251 28 µM

COc1ccc(N2C(=O)C3c4[nH]c5c(C)cccc5c4C4CCC(c5ccccc5)CC4C3C2=O)cc1 (configuration not stated)
inactive: 786-0 3.9 µM | CCRF-CEM 1.28 µM | HOP-92 15 µM | HT-29 3.21 µM | IGROV-1 13.7 µM | KM12 12.6 µM | LOX IMVI 13.8 µM | M14 11.9 µM | MDA-MB-231 16.3 µM | MDA-N 13.5 µM | NCI-H460 5.68 µM | SF-268 6.65 µM | SK-MEL-28 12 µM | SK-MEL-2 24.2 µM | SK-OV-3 17.7 µM | U-251 8.43 µM

CNC(=O)c1ccccc1[S+]1c2cccc3cccc(c23)C(=O)N1C (configuration not stated)
inactive: 786-0 > 100 µM | CCRF-CEM > 100 µM | HOP-92 > 100 µM | HT-29 > 100 µM | IGROV-1 > 100 µM | K562 > 100 µM | KM12 > 100 µM | LOX IMVI > 100 µM | M14 > 100 µM | MDA-MB-231 > 100 µM | MDA-N > 100 µM | RXF 393 > 100 µM | SF-268 > 100 µM | SK-MEL-28 > 100 µM | SK-MEL-2 > 100 µM | SK-MEL-5 > 100 µM | U-251 > 100 µM

O=C1OC(=O)c2cc(S(=O)(=O)c3ccc4c(c3)C(=O)OC4=O)ccc21
inactive: 786-0 > 100 µM | CCRF-CEM > 100 µM | HT-29 > 100 µM | IGROV-1 > 100 µM | K562 > 100 µM | KM12 > 100 µM | LOX IMVI > 100 µM | M14 > 100 µM | MDA-MB-231 > 100 µM | MDA-N > 100 µM | NCI-H460 > 100 µM | RXF 393 > 100 µM | SF-268 > 100 µM | SK-MEL-28 > 100 µM | SK-MEL-2 > 100 µM | SK-MEL-5 > 100 µM | SK-OV-3 > 100 µM | U-251 > 100 µM
